Reference: paper PMC6377466 (Proceedings of the National Academy of Sciences of the …, 2019)

Tests used:
[1] = target: T1, KRAS166^G12V (Homo sapiens, UniProt P01116, G12V); experiment: SPR screen and waterLOGSY NMR; assay type: binding
T1 construct: gene KRAS; KRAS166

[2] = target: T2, HRAS^G12V (Homo sapiens, UniProt P01112, G12V); experiment: cell BRET RAS-effector interaction assay, dose response […]; assay type: cell-based
T2 construct: full-length (RLuc8 fusion); with CRAF

[3] = target: T3, NRAS^Q61H (Homo sapiens, UniProt P01111, Q61H); experiment: as above; assay type: cell-based
T3 construct: full-length (RLuc8 fusion); with CRAF

Row | Compound | SPR screen and waterLOGSY NMR [1] | cell BRET RAS-effector interaction assay, dose response 5-20 μM [2] | cell BRET RAS-effector interaction assay, dose response 5-20 μM [3]
1 | CCCN1CCN(C(=O)c2c[nH]cn2)CC(Cc2ccc(-c3ccccc3)cc2)C1=O (stereo not shown) [PPIN-1] | PPIN-1 and -2 were confirmed to bind to KRAS166^G12V | – | –
2 | COc1cccc(-c2ccc(Nc3ccc(CN(C)C)cc3)c(OC)c2F)c1 [Ch-3] | – | Ch-3 interferes with NRAS and HRAS isoforms using the BRET biosensor assay | Ch-3 interferes with NRAS and HRAS isoforms using the BRET biosensor assay
3 | COc1cccc(-c2cccc(CC3(C(=O)NCCCn4ccnc4)CCOCC3)c2)c1 [PPIN-2] | PPIN-1 and -2 were confirmed to bind to KRAS166^G12V | – | –
